Data published in patent publication US6939859B1, “Skin preparations for external use” (CCI Corp., priority 1999, dated 2005).

Columns and labels:
[1] = tested on: fibroblasts originating in the lungs of Chinese hamster (V79); test: Test for confirming effect of preventing ultraviolet light (UVB) disorder, V79 cells; format: cell-based; conditions: 1 mM chromanol glycoside, UVB 312 nm 60 mJ/cm^2, 72 h culture, neutral red, non-irradiated = 100%
Method: (§1) The fibroblasts originating in the lungs of Chinese hamster (V79) or the diploid fibroblasts originating in the skin-of a normal person (NB1RGB) were adjusted in a culture medium till the cell density reached 5.0×10^4 pieces/ml, sown at a rate of 100 μl in each of the wells on a 96-hole plate, and cultured in an atmosphere of 5% CO2 kept at 37° C. for 24 hours. As the culture medium, an E-MEM medium containing 10% bovine fetus serum (made by Nissui K.K.) For V79 or an α-MEM medium (made by SIGMA) for NB1RGB (hereinafter each referred to as “ordinary culture medium”).
(§2) After 24 hours' culture, the culture medium was removed and the individual wells were each washed twice with 200 μl of Hanks equilibrium salt buffer (Hanksbuffer). Some of these wells to which the Hanks buffer alone was added in a unit amount of 100 μl formed a control group and the remainders of them to which the Hanks buffer having a given chromanol glycoside dissolved till a final concentration of 1 mM was added in a unit amount of 100 μl formed a chromanol glycoside-added group. The groups each consisted of 46 samples. They were irradiated with a UVB (312 nm) emitted from an ultraviolet lamp (made by Cosmo Bio K.K.) at a dosage of 60 mJ/cm^2. The amount of the energy so emitted was measured by the use of an ultraviolet light intensity meter (made by Topcon K.K. and sold under the product code of “UVR-2”).
(§3) Immediately after completion of the irradiation, the wells were each washed twice with 200 μl. With the ordinary culture medium added in a unit volume of 100 μl to the wells, the contents of the wells were cultured for 72 hours. After the elapse of 72 hours from thence, the neutral red reagent (0.015%) was added in a unit volume of 100 μl to the wells and the resultant contents of the wells were cultured for 3 hours. After the elapse of 3 hours from thence, the culture medium was removed and a fixing solution (aqueous solution containing 0.5% of formaldehyde and 0.1% of calcium chloride) was added in a unit volume of 200 μl to the wells. The resultant contents of the wells were fixed for one minute and the fixing solution was removed from the wells. Then, an extracting solution (aqueous solution containing 50% of ethanol and 1% of acetic acid) were added in a unit volume of 100 μl to the wells. The resultant contents of the wells were left standing for 20 minutes and assayed with a micro-plate reader for the absorbency at 490 nm and visually examined to count the number of live cells. On the basis of the results of the assay, the relative survival ratios of the samples were determined, with the number of cells in the groups of wells not irradiated with the ultraviolet light taken as 100%.

interleukin-1α (IL-1α) [2] = test: Effect of preventing UVB-induced cytokine (IL-1α production, sample present during irradiation); format: cell-based; conditions: cornified cells of normal human neonate foreskin; 0.1 mM sample during UVB 30 mJ/cm^2; 6 h culture; ELISA; means ± S.E.
Method: Cornified cells of normal human neonate foreskin scurfskin (freeze-preserved product, made by Kurabo K.K.) were adjusted to a cell density of 1.0×10^5 pieces/ml in a HuMedia-KG2 culture medium (made by Kurabo K.K.), sown in a unit volume of 2 ml in the component wells of a 6-hole plate, and cultured in an atmosphere of 5% CO2 at 37° C. for 24 hours. After completion of the culture, the culture medium was removed and the wells were each washed twice with 2 ml of Hanks buffer. Some of these wells to which the Hanks buffer alone was added in a unit amount of 1 ml formed a control group and the remainders of them to which the Hanks buffer containing 0.1 mM of a given sample was added in a unit amount of 1 ml formed a sample-added group. The groups each consisted of 8 samples. They were irradiated with a UVB (312 nm) emitted from an ultraviolet lamp (made by Cosmo Bio K.K.) at a dosage of 30 mJ/cm^2. The amount of the energy so emitted was measured by the use of an ultraviolet light intensity meter (made by Topcon K.K. and sold under the trademark designation of “UVR-2).
Immediately after completion of the irradiation, the wells were each washed twice with 2 m of Hanks buffer. With a HuMedia-KG2 culture medium added in a unit volume of 1 ml to the wells, the contents of the wells were cultured in an atmosphere of 5% CO2 at 37° C. for 6 hours.
(§4) The supernatant occurring at the end of 6 hours' culture was recovered and centrifuged at 1000 rpm for 5 minutes. The concentration of the IL-1α in the resultant supernatant was determined by the use of an ELISA kit made by ENDOGENE Corp. The significance was verified by the t-test and was applied to the groups yet to be treated.

NB1RGB = test: Test for confirming effect of promoting growth of cells, NB1RGB; format: cell-based, human; conditions: 100 μM chromanol glycoside, 72 h, neutral red, control = 100%
Method: (§5) V79 or NB1RGB was adjusted with a culture medium till the cell density reached 5×10^4 pieces/ml. Then, it was sown in a unit volume of 100 μl in the component wells of a 96-hole plate and cultured in an atmosphere of 5% CO2 at 37° C. for 72 hours. The culture medium used herein was the ordinary culture medium. Some of the wells effecting culture in the ordinary culture medium containing 100 μM of chromanol glycoside formed a chromanol glycoside-added group and the remainders of the wells effecting culture in the ordinary culture medium formed a control group. The groups each consisted of 80 samples. After the elapse of 72 hours from thence, a neutral red reagent (0.015%) was added in a unit volume of 100 μl to the wells and the resultant contents of the wells were cultured for 3 hours. After the 3 hours' culture, the culture medium was removed and a fixing solution (aqueous solution containing 0.5% of formaldehyde and 0.1% of calcium chloride) was added in a unit volume of 200 μl to the wells. The resultant contents of the wells were left fixing for one minute and then the fixing solution was removed. Subsequently, an extraction solution (aqueous solution containing 50% of ethanol and 1% of acetic acid) was added in a unit volume of 100 μl to the wells. The resultant contents of the wells were left standing for 20 minutes and measured for absorbency at 490 nm by the use of a micro-plate reader so as to allow computation of the number of cells. On the basis of the results of the measurement, the relative breeding ratios of the samples were determined, with the number of cells in the control groups taken as 100%.

[3] = tested on: pigment-sedimented skin of colored guinea pigs; test: Improving effect relative to deposition of ultraviolet light-induced pigment; format: in vivo, guinea pig; conditions: 5% TMG solution in 50% ethanol, applied twice daily for three weeks, 5.6 μl/cm^2; brightness of skin (L value)
Method: Pigment-sedimented models wee produced from Al-1 type colored guinea pigs (female, 7-week old) divided into groups of 6 heads by shaving their backs and performing the irradiation of the skins of the backs with the ultraviolet light (light source: xenon lamp, dose: 2 MED×1 minute) once daily up to a total of three repetitions three to four days apart. After the models had been left standing for 10 days from thence, the specific portions of the pigment-sedimented parts were measured for the brightness of skin (L value) by the use of a calorimeter (former value). To the pigment-sedimented parts, a 5% TMG solution adjusted by using a 50% ethanol solution as a solvent was applied twice daily continuously for three weeks (amount applied:5.6 μl/cm^2). The guinea pigs which had undergone this application formed a TMG-applied group. The guinea pigs which had undergone application of a 50% ethanol solution in the place of the 5% TMG solution formed a control group. After three weeks from the start of the application, the skins of their backs were measured for the brightness with a calorimeter (latter value) to find the ΔL value(former value−lattervalue).

[4] = tested on: diploid fibroblasts originating in the skin of a normal person (NB1RGB); test: Test for confirming effect of preventing ultraviolet light (UVB) disorder, NB1RGB cells; format: cell-based, human; conditions: 1 mM chromanol glycoside, UVB 312 nm 60 mJ/cm^2, 72 h culture, neutral red, non-irradiated = 100%
Method: as §1, §2, §3

V79 = test: Test for confirming effect of promoting growth of cells, V79; format: cell-based, Chinese hamster; conditions: 100 μM chromanol glycoside, 72 h, neutral red, control = 100%
Method: as §5

ICR type mice = test: Test for acute toxicity; format: in vivo; conditions: oral, 500 mg/kg as TMG in 5% gum arabic, observation for one week
Method: The dermatological agent for external use of this invention was tested for acute toxicity so as to establish the safety thereof. ICR type mice4-5 weeks old were divided into groups each of three heads. The same TMG as mentioned above was suspended as a chromanol glycoside in a 5% gum arabic solution. The suspension was orally administered to the mice at a unit dosage of 500 mg/kg as reduced to TMG and the mice were kept under observation for one week. To the mice in the control group, a 5% gum arabic solution was orally administered in a unit volume of 0.3 ml. No fatality was found in any of the mice in the administration group.

interleukin-1α (IL-1α) [5] = test: Effect of curing UVB disorder (IL-1α production, sample added after irradiation); format: cell-based; conditions: cornified cells of normal human neonate foreskin; 0.1 mM sample added after UVB 30 mJ/cm^2; 6 h culture; ELISA; means ± S.E.
Method: Cornified cells of normal human neonate foreskin scurfskin (freeze-preserved product, made by Kurabo K.K.) were adjusted to a cell density of 1.0×10^5 pieces/ml in a HuMedia-KG2 culture medium (made by Kurabo K.K.), sown in a unit volume of 2 ml in the component wells of a 6-hole plate, and cultured in an atmosphere of 5% CO2 at 37° C. for 24 hours. After completion of the culture, the culture medium was removed and the wells were each washed twice with 2 ml of Hanks buffer. The Hanks buffer alone was added in a unit volume of 1 ml to the wells. They were irradiated with a UVB (312nm) emitted from an ultraviolet lamp (made by Cosmo Bio K.K.) at a dosage of 30 mJ/cm”. The amount of the energy so emitted was measured by the use of an ultraviolet light intensity meter (made by Topcon K.K. and sold under the trademark designation of “UVR-2”) . . . . Some of these wells to which the Hanks buffer alone was added in a unit amount of 1 ml formed a control group and the remainders of them to which the Hanks buffer containing 0.1 mM of a given sample was added in a unit amount of 1 ml formed a sample-added group. The groups each consisted of 8 samples. The contents of the wells were cultured in an atmosphere of 5% CO2 at 37° C. for 6 hours.
as §4

Row | Structure (SMILES) | Survival ratio (%) [1] [%] | Amount of IL-1α produced, Effect of prevention (interleukin-1α (IL-1α) [2]) [µg/mL] | Breeding ratio (%) (NB1RGB) | ΔL value [3] | Survival ratio (%) [4] [%] | Breeding ratio (%) (V79) | Fatality (acute toxicity) (ICR type mice) | Amount of IL-1α produced, Effect of curing (interleukin-1α (IL-1α) [5]) [µg/mL]
1 | Cc1c(C)c2c(c(C)c1O)CCC(C)(C[C@H]1O[C@H](CO)[C@@H](O)[C@H](O)[C@H]1O)O2 (stereo partly drawn) [TMG, 2-(α-D-Glucopyranosyl)methyl-2,5,7,8-tetramethyl chroman-6-ol] | 75 ± 8 | 14.5 ± 3.5 | 118 | 2.00 | 78 ± 16 | 112 | No fatality | 18.5 ± 4.2
2 | N[C@@H](CCC(=O)N[C@@H](CS)C(=O)NCC(=O)O)C(=O)O [Glutathione] |  | 7.2 ± 3.4 |  |  |  |  |  | 36.5 ± 1.6
3 | Cc1c(C)c2c(c(C)c1O)CCC(C)(C[C@H]1O[C@H](CO)[C@@H](O)[C@H](O)[C@@H]1O)O2 (stereo partly drawn) [TMMA, 2-(α-D-Mannopyranosyl)methyl-2,5,7,8-tetramethyl chroman-6-ol] | 96 ± 9 |  | 121 |  | 79 ± 8.7 | 124 |  | 
4 | O=C1O[C@H]([C@@H](O)CO)C(O)=C1O [Ascorbic acid] |  | 16.5 ± 2.8 |  |  |  |  |  | 31.7 ± 5.0
5 | Cc1c(C)c2c(c(C)c1O)CCC(C)(C[C@@H]1O[C@H](CO)[C@H](O)[C@H](O)[C@H]1O)O2 (stereo partly drawn) [TMGA, 2-(β-D-Galactopyranosyl)methyl-2,5,7,8-tetramethyl chroman-6-ol] | 83 ± 7 |  | 121 |  | 83 ± 14 | 115 |  | 
6 | Cc1c(C)c2c(c(C)c1O)CCC(C)(C[C@]1(CO)O[C@H](CO)[C@@H](O)[C@@H]1O)O2 (stereo partly drawn) [TMFR, 2-(β-D-Fructofuranosyl)methyl-2,5,7,8-tetramethyl chroman-6-ol] | 89 ± 9 |  | 115 |  | 81 ± 12 | 126 |  | 
